Results reported in PubChem BioAssay (NCI).
Several values for one entry are separate records, joined by “and”; a condition that tells them apart may be missing. Equal values may be shown once.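 Each compound was tested at five concentrations against cells in 96-well plates for 48 hours. GI50 = concentration required for 50% inhibition of growth. TGI: total growth inhibition.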

Key:
Experiment in all cases: NCI tumour cell line growth inhibition, 48 h
[1] = system: A498 renal
[2] = system: HCT-15 colon
[3] = system: OVCAR-4 ovarian
[4] = system: HL-60(TB) leukemia
[5] = system: LOX IMVI melanoma
[6] = system: HCT-116 colon
[7] = system: OVCAR-3 ovarian
[8] = system: NCI-H23 lung
[9] = system: SR leukemia
[10] = system: MDA-MB-231 breast

| SMILES | TGI [1] | TGI [2] | TGI [3] | TGI [4] | TGI [5] | TGI [6] | TGI [7] | TGI [8] | TGI [9] | GI50 [1] | GI50 [10] | TGI [10] | GI50 [2] | GI50 [3] | GI50 [5] | GI50 [6] | GI50 [7] | GI50 [8] | GI50 [4] |
| --- | --- | --- | --- | --- | --- | --- | --- | --- | --- | --- | --- | --- | --- | --- | --- | --- | --- | --- | --- |
| Cc1nc2ccccc2c(=O)n1-c1ccccc1F | > 100 µM | > 100 µM | > 100 µM | > 100 µM | > 100 µM | > 100 µM | > 100 µM | > 100 µM |  |  |  |  |  |  |  |  |  |  |  |
| CCCS(=O)(=O)/C(=C(\c1ccc(Br)cc1)S(=O)(=O)CCC)c1ccc(Br)cc1 | > 10 µM | > 10 µM | > 10 µM | > 10 µM | > 10 µM | > 10 µM | > 10 µM | > 10 µM | > 10 µM |  |  |  |  |  |  |  |  |  |  |
| COC(=O)C(=Cc1cc(OC)c(OC)c(OC)c1-c1cc2c(cc1C(C)=O)OCO2)C(=O)OC |  | 50.2 µM |  | 172 µM | 79.4 µM | 62.5 µM | 56.2 µM | 75.9 µM | > 211 µM |  |  |  |  |  |  |  |  |  |  |
| C/C(=C1/CCC/C(=C(/C)c2ccccc2)C1=O)c1ccccc1 |  | > 100 µM | > 100 µM | 27.9 µM | > 100 µM | 55.5 µM | > 100 µM | > 100 µM | 43.5 µM |  |  |  |  |  |  |  |  |  |  |
| CCCCCCC(=O)C/C(=N/NC(N)=S)C(=O)NC1C2CC3CC(C2)CC1C3 (stereo not given) |  |  | > 100 µM | > 100 µM | > 100 µM | > 100 µM | > 100 µM | > 100 µM |  |  |  |  |  |  |  |  |  |  |  |
| COc1cccc(N2C(=O)[C@H]3CC(C)c4c([nH]c5ccccc45)[C@H]3C2=O)c1 (stereo not given in full) | > 100 µM | > 100 µM |  | > 100 µM | > 100 µM |  | > 100 µM | > 100 µM |  |  |  |  |  |  |  |  |  |  |  |
| NCCCn1c2c(c3ccc([N+](=O)[O-])cc3c1=O)C(=O)c1cc(Br)ccc1-2 | 0.0628 µM | 0.155 µM and 0.0641 µM |  |  | 0.109 µM and 0.0227 µM | 0.348 µM and 0.207 µM |  | 0.118 µM and 0.151 µM |  | 0.00231 µM | 0.0364 µM and 0.0168 µM | 0.218 µM and 0.103 µM | 0.035 µM | 0.102 µM | 0.00683 µM | 0.185 µM and 0.0484 µM | 0.254 µM | 0.0289 µM and 0.0213 µM |  |
| C/C=C1/C(=C/c2[nH]c(/C=c3\[nH]/c(=C/C4=NC(=O)C(CC)=C4C)c(C)c3CCC(=O)O)c(CCC(=O)O)c2C)NC(=O)C1C (stereo not given) | > 150 µg/mL | > 150 µg/mL | > 150 µg/mL | > 150 µg/mL | > 150 µg/mL | > 150 µg/mL |  | > 150 µg/mL |  | > 150 µg/mL |  |  | > 150 µg/mL | > 150 µg/mL | > 150 µg/mL | > 150 µg/mL |  | > 150 µg/mL | > 150 µg/mL |
| COC(C(O)c1ccc2c(c1)OCO2)P(=O)(c1ccccc1)c1ccccc1 (stereo not given) | > 100 µM |  | 30.9 µM | > 100 µM |  | > 100 µM | 40.3 µM | > 100 µM | > 100 µM |  |  |  |  |  |  |  |  |  |  |
| COc1ccc(CNc2nc3cc(C(F)(F)F)ccc3nc2C)cc1OC | 83.6 µM | > 100 µM | 43.1 µM | 50.6 µM | 68.7 µM | > 100 µM | > 100 µM | > 100 µM |  |  |  |  |  |  |  |  |  |  |  |
| Cc1ccc(-c2cc(=O)c3cc(C)c(C)c(C(=O)O)c3o2)cc1C |  | > 100 µM | > 100 µM | > 100 µM | > 100 µM | > 100 µM | > 100 µM | > 100 µM | > 100 µM |  |  |  |  |  |  |  |  |  |  |
| O=C(Nc1ccc(Cl)cc1Cl)C(=O)C(C(=O)c1ccncc1)C1OC(=O)c2ccccc21 (stereo not given) | > 100 µM | > 100 µM | > 100 µM | > 100 µM | > 100 µM | > 100 µM | > 100 µM | > 100 µM | > 100 µM |  |  |  |  |  |  |  |  |  |  |
| CC(=O)O.[Au].c1ccc([PH+](c2ccccc2)c2ccccc2)cc1 |  | 3.15 µM | 5.02 µM | 0.266 µM | 7.98 µM | 3.2 µM | 5.52 µM | 6.89 µM |  |  |  |  | 1.56 µM | 2 µM | 2.54 µM | 1.72 µM | 2.43 µM | 2.36 µM | 0.0578 µM |
| COC1=CC2(C=CC1=O)c1cc(OC)c(OC)cc1CCN2C(=O)c1ccccc1 (stereo not given) | > 100 µM | > 100 µM |  |  | > 100 µM | > 100 µM | > 100 µM | > 100 µM |  |  |  |  |  |  |  |  |  |  |  |
| COC(=O)c1cc(C)c(C)c2c1NC(=O)CNC2=O | > 100 µM | > 100 µM | > 100 µM | > 100 µM |  | > 100 µM | > 100 µM | > 100 µM | > 100 µM |  |  |  |  |  |  |  |  |  |  |
| N#CCc1ccc(C(C#N)/C(CCCC(=O)Nc2cccc([N+](=O)[O-])c2)=N/NC(N)=S)cc1 (stereo not given) | > 100 µM | > 100 µM | > 100 µM | > 100 µM | > 100 µM | > 100 µM | > 100 µM | > 100 µM | > 100 µM |  |  |  |  |  |  |  |  |  |  |
| CC(=O)N1C/C(=C\c2ccc(N(C)C)cc2)C(=O)/C(=C/c2ccc(N(C)C)cc2)C1 | > 100 µM | > 100 µM | > 100 µM | > 100 µM | > 100 µM | > 100 µM | 56.3 µM | > 100 µM | > 100 µM |  |  |  |  |  |  |  |  |  |  |
